Measurements as given in US10953027B2, “Active agents and methods of their use for the treatment of metabolic disorders and nonalcoholic fatty liver disease” (Flagship Pioneering Innovations V, Inc., priority 2018, dated 2021).

Assays:
Male DIO mice = test: In vivo evaluation for glucose disposal and lipidemia in DIO mice (Example 11); details: for Fasting blood glucose levels (time 0 from OGTT): 28 days, 16 hour fast; for change in body weight from baseline: 30 days; for glucose AUC (0-120 min): OGTT day 28, glucose 2.0 g/kg PO; for Cholesterol / HDL / LDL / NEFA / Triglycerides: terminal (fed) serum
Experimental: The DIO mice were prepared by feeding male C57BL/6 mice a high fat diet (HFD, Research Diets D12492) from 6-14 weeks of age. DIO mice were housed individually and maintained on the HFD through the duration of study. A twelve-hour light cycle was maintained with room temperature maintained at 22-25° C. All of the mice were acclimated to the facility for 5 days prior to starting the study.
Following 5 days of facility acclimation, DIO mice were randomized into 8 groups of 10 based on body weight and blood glucose for assignment to treatment, as shown in Table 9:
All treatments were administered admixed in HFD (Research Diets, New Brunswick N.J.) and were provided ad libitum for 30 days. Drinking water for group 7 was supplemented with 1, 3 Butanediol at 3% concentration.
Body weight was recorded at baseline and twice weekly thereafter. Feed and water intakes were recorded each Monday, Wednesday, and Friday.
Blood samples (<3 μL) were obtained one hour post dose by tail clip at baseline and weekly thereafter for measurement of fed blood glucose by StatStrip. Additional anti-coagulated blood samples (100 μl, EDTA di-potassium salt) were obtained by tail clip one hour post-dose at baseline, day 14 and day 30. Anti-coagulated samples were quick frozen and stored on dry ice.
Animals were subjected to a 16 hour fast for performance of an oral glucose tolerance test (OGTT) on day 28. Blood samples were obtained via tail clip just prior to (8 am) and 15, 30, 60, 90, and 120 minutes post-glucose load (2.0 g/kg, PO) for assay of whole blood glucose (StatStrip). Feed was returned following last sample.
Animals were terminated on day 30-31 using CO2 inhalation and induction of pneumothorax. Terminal blood samples were obtained by cardiac puncture. Whole blood was processed to serum and analyzed for serum cholesterol, triglycerides, high density lipoprotein (HDL), low density lipoprotein (LDL) and non-esterified fatty acids (NEFA) using AU480 clinical analyzer.
Organ weights (liver, spleen, subcutaneous fat, inguinal fat, abdominal fat, and epididymal fat) were recorded. Sections of each fat were frozen or fixed in 4% paraformaldehyde/PBS, pH 6.9; Fat samples were placed on dry ice. Fixed liver samples (4% paraformaldehyde) were sent to Premier Laboratories for H&E staining and scoring for steatosis, inflammation and fibrosis. Spleen samples were prepared in ice cold 5% bovine serum albumin (BSA) in PBS or 4% paraformaldehyde. Sections of brain, heart, lung, and small and large intestine were fixed in 10% formalin.
All data are represented as group mean±SEM. Data were analyzed using JMP (SAS software). All normalizations were calculated using terminal body weight.
Baseline differences among groups were identified using Tukey-Kramer Hsd<0.05. Treatment effects compared to control were determined using Oneway ANOVA (*, p<0.05) followed by Dunnett's test where appropriate.

Male FATZO mice = test: In vivo FATZO DM2/obesity study (Example 5); details: in HFD ad libitum, after 28 days; blood glucose 0-120 minutes
Experimental: Male FATZO mice (Crown Bio) of 11-12 weeks old were selected for Diabetes Mellitus Type 2 (DM2) and obesity study. Mice were randomized into 9 groups based on body weight and blood glucose level as shown below. Compounds were administered in high fat diet (HFD: D12492) and provided to mice ad libitum until study termination. Body weight was recorded at the baseline and then twice weekly thereafter. Blood glucose level was measured at 0, 15, 30, 60, 90, and 120 minutes at the end of the study.

[1] = Assay 3. Fecal Incubation Stability; assay type: in vitro ADME; details: 1 or 10 μM, human fecal slurry, anaerobic
HFD-fed C57BL/6 mice = test: In vivo evaluation in HFD-fed C57BL/6 mice (Example 3); details: 6% in HFD ad libitum, 8 week
Experimental: Animals were allowed free access to food and drinking water for the entire 8 week study. Animals were weighed on a weekly basis, and food and drinking water consumption monitored. Plasma and stool samples were collected at the beginning of the study, mid-study, and day of termination. These samples were used for the measurement of the disease makers.
Disease markers were also assessed in liver tissues collected from mice as follows. Liver tissues from mice were collected, fixed by immersion in 10% neutral buffered formalin. Fixed tissue specimens were sent to a histological processing laboratory (Premier Laboratory, Longmont, Colo.), where they were paraffin embedded, sectioned (approximately 4 μm), mounted, and stained with hematoxylin and eosin (H&E) using standard methods.
Liver sections (2) for each animal were scored from a scan of the H&E-stained slide for inflammation, steatosis (macrovesicular vacuolation) and ballooning ([…] vacuolation) using a modified grading scale based on human biopsy scoring (Brunt et al., Am J Clin Pathol, 128:837-47, 2007). Inflammation was scored 0=no inflammation, 1=minimal (1-3 foci of scattered (lobar) inflammatory cells), 2=mild (3 to 10 scattered foci of inflammatory cells with or without portal/periportal inflammation), 3=moderate (>10 scattered (lobar) foci of inflammatory cells and/or marked portal/periportal inflammation. Steatosis was graded (as in Brunt et al., Am J Clin Pathol, 128:837-47, 2007) as follows: 0=no steatosis, grade 1: ≤33%; grade 2: >33%, <66%; 3: ≥66%. Ballooning was scored as follows: 0=no ballooning, 1=rare/few, and 2=many hepatocytes with microvesicular vacuolation.

Q: With CC(=O)Oc1cc(OC(C)=O)c2c(=O)c(OC(C)=O)c(-c3ccc(OC(C)=O)c(OC(C)=O)c3)oc2c1 [Compound 14, [2-acetoxy-4-(3,5,7-triacetoxy-4-oxo-chromen-2-yl)phenyl] acetate] as the compound, how does the “Abdominal fat (% BW)” value (Male DIO mice; 6% in HFD) read?
A: *0.98 ± 0.2 % BW

Q: And the “Blood glucose (fed) change compared to baseline” value (Male DIO mice; 6% in HFD)?
A: −23.1±4.9%

Q: What about the “Epididymal fat (% BW)” value (Male DIO mice; 6% in HFD) of the same compound?
A: *2.6 ± 0.3 % BW

Q: What about the “Inguinal fat (% BW)” value (Male DIO mice; 6% in HFD) of the same compound?
A: *0.40 ± 0.06 % BW

Q: What about the “Subcutaneous fat (% BW)” value (Male DIO mice; 6% in HFD) of the same compound?
A: *2.2 ± 0.4 % BW

Q: What about the “Fasting blood glucose levels (time 0 from OGTT)” value (Male DIO mice; 6% in HFD) of the same compound?
A: 63.1 ± 1.9 mg/dL

Q: And the “change in body weight from baseline” value (Male DIO mice; 6% in HFD)?
A: −11.9±1.3%

Q: And the “glucose AUC (0-120 min)” value (Male DIO mice; 6% in HFD)?
A: 25720.5 ± 895.5 mg/dL/min

Q: What about the Cholesterol (Male DIO mice; 6% in HFD) of the same compound?
A: *121.5 ± 9.4 mg/dL

Q: And the HDL (Male DIO mice; 6% in HFD)?
A: 79.4 ± 4.0 mg/dL

Q: And the LDL (Male DIO mice; 6% in HFD)?
A: *4.9 ± 0.4 mg/dL

Q: And the NEFA (Male DIO mice; 6% in HFD)?
A: *0.69 ± 0.03 mEq/L

Q: And the Triglycerides (Male DIO mice; 6% in HFD)?
A: *64.0 ± 2.8 mg/dL

Q: And the “OGTT (AUC)” value (Male FATZO mice)?
A: 65323

Q: Which results are given for CC(=O)O[C@H]1OC[C@H](OC(C)=O)[C@H](OC(C)=O)[C@H]1OC(C)=O [Compound 53, (2R,3R,4S,5S)-tetrahydro-2H-pyran-2,3,4,5-tetrayl Tetraacetate]?
A: Abdominal fat (% BW) (Male DIO mice; 5% in HFD): *1.9 ± 0.2 % BW; Blood glucose (fed) change compared to baseline (Male DIO mice; 5% in HFD): −12.5±2.2%; Epididymal fat (% BW) (Male DIO mice; 5% in HFD): 4.1 ± 0.4 % BW; Inguinal fat (% BW) (Male DIO mice; 5% in HFD): 0.84 ± 0.11 % BW; Subcutaneous fat (% BW) (Male DIO mice; 5% in HFD): 4.0 ± 0.6 % BW; Fasting blood glucose levels (time 0 from OGTT) (Male DIO mice; 5% in HFD): 90.8 ± 5.7 mg/dL; change in body weight from baseline (Male DIO mice; 5% in HFD): −1.8±3.2%; glucose AUC (0-120 min) (Male DIO mice; 5% in HFD): 30151.5 ± 1680 mg/dL/min; Cholesterol (Male DIO mice; 5% in HFD): 163.3 ± 10.3 mg/dL; HDL (Male DIO mice; 5% in HFD): 88.9 ± 2.7 mg/dL; LDL (Male DIO mice; 5% in HFD): *6.5 ± 0.7 mg/dL; NEFA (Male DIO mice; 5% in HFD): *0.98 ± 0.05 mEq/L; Triglycerides (Male DIO mice; 5% in HFD): 84.8 ± 5.5 mg/dL; Assay 3 (% Remaining at 24 h) [1]: A (A: <25% of the tested compound remaining)

Q: Which results are given for CC(=O)Oc1cc(OC(C)=O)c2c(c1)O[C@H](c1cc(OC(C)=O)c(OC(C)=O)c(OC(C)=O)c1)[C@H](OC(=O)c1cc(OC(C)=O)c(OC(C)=O)c(OC(C)=O)c1)C2 [Compound 4, [(2R,3R)-5,7-diacetoxy-2-(3,4,5-triacetoxyphenyl)chroman-3-yl] 3,4,5-triacetoxybenzoate]?
A: ballooning score (FIG. 4) (HFD-fed C57BL/6 mice): lower ballooning score than the animals fed a high fat diet only; glucose tolerance (FIG. 2) (HFD-fed C57BL/6 mice): exceeded that of animals in the HFD+rosiglitazone; histological analysis of the livers: steatosis (FIGS. 5A-5G) (HFD-fed C57BL/6 mice): significantly lower steatosis; percentage change in weight (FIG. 1) (HFD-fed C57BL/6 mice): underwent weight loss; steatosis score (FIG. 3) (HFD-fed C57BL/6 mice): lower steatosis score than the animals fed high fat diet only; Abdominal fat (% BW) (Male DIO mice; 0.6% in HFD): 2.1 ± 0.2 % BW; Blood glucose (fed) change compared to baseline (Male DIO mice; 0.6% in HFD): −15.6±3.1%; Epididymal fat (% BW) (Male DIO mice; 0.6% in HFD): 4.7 ± 0.2 % BW; Inguinal fat (% BW) (Male DIO mice; 0.6% in HFD): 0.99 ± 0.17 % BW; Subcutaneous fat (% BW) (Male DIO mice; 0.6% in HFD): 4.9 ± 0.4 % BW; change in body weight from baseline (Male DIO mice; 0.6% in HFD): 13.5±2.0%; Abdominal fat (% BW) (Male DIO mice; 2% in HFD): 2.4 ± 0.1 % BW; Blood glucose (fed) change compared to baseline (Male DIO mice; 2% in HFD): −9.0±3.9%; Epididymal fat (% BW) (Male DIO mice; 2% in HFD): 4.5 ± 0.2 % BW; Inguinal fat (% BW) (Male DIO mice; 2% in HFD): 0.93 ± 0.08 % BW; Subcutaneous fat (% BW) (Male DIO mice; 2% in HFD): 5.5 ± 0.5 % BW; change in body weight from baseline (Male DIO mice; 2% in HFD): 16.4±1.1%; Abdominal fat (% BW) (Male DIO mice; 6% in HFD): 2.2 ± 0.1 % BW; Blood glucose (fed) change compared to baseline (Male DIO mice; 6% in HFD): −4.3±3.0%; Epididymal fat (% BW) (Male DIO mice; 6% in HFD): 4.7 ± 0.3 % BW; Inguinal fat (% BW) (Male DIO mice; 6% in HFD): 0.95 ± 0.08 % BW; Subcutaneous fat (% BW) (Male DIO mice; 6% in HFD): 5.0 ± 0.6 % BW; change in body weight from baseline (Male DIO mice; 6% in HFD): 15.7±1.0%; Cholesterol (Male DIO mice; 0.6% in HFD): 193.9 ± 11.0 mg/dL; HDL (Male DIO mice; 0.6% in HFD): 94.4 ± 4.0 mg/dL; LDL (Male DIO mice; 0.6% in HFD): 9.2 ± 0.9 mg/dL; NEFA (Male DIO mice; 0.6% in HFD): 1.2 ± 0.04 mEq/L; Triglycerides (Male DIO mice; 0.6% in HFD): 97.7 ± 10.1 mg/dL; Cholesterol (Male DIO mice; 2% in HFD): 208.2 ± 7.2 mg/dL; HDL (Male DIO mice; 2% in HFD): 99.0 ± 3.6 mg/dL; LDL (Male DIO mice; 2% in HFD): 10.7 ± 0.9 mg/dL; NEFA (Male DIO mice; 2% in HFD): 1.2 ± 0.06 mEq/L; Triglycerides (Male DIO mice; 2% in HFD): 91.1 ± 8.4 mg/dL; Cholesterol (Male DIO mice; 6% in HFD): 200.4 ± 14.2 mg/dL; HDL (Male DIO mice; 6% in HFD): 91.5 ± 5.1 mg/dL; LDL (Male DIO mice; 6% in HFD): 12.3 ± 0.9 mg/dL; NEFA (Male DIO mice; 6% in HFD): 1.1 ± 0.04 mEq/L; Triglycerides (Male DIO mice; 6% in HFD): 89.9 ± 5.7 mg/dL; Assay 3 (% Remaining at 24 h) [1]: A (A: <25% of the tested compound remaining); OGTT (AUC) (Male FATZO mice): 59443
